Measured values published in publication PMC7278359, “Small molecule AX-024 reduces T cell proliferation independently of CD3ϵ/Nck1 interaction, which is governed by a domain swap in the Nck1-SH3.1 domain” (The Journal of Biological Chemistry, 2020).
“Also recorded” adds a separate entry of the source.

Experiments:
CD4 T cell proliferation = CD4 T cell proliferation by CFSE dilution, anti-CD3 stimulation; type: cell-based, human; conditions: human CD3+ T cells (n = 4 donors), CFSE dilution gated on CD4, 0.2 μg·ml^−1 plate-bound anti-CD3 (OKT3), no co-stimulation, 4 days, 0.2% DMSO
Method: Figure 2. […] CD4 T cell proliferation was assessed upon stimulation with anti-CD3ϵ by CFSE dilution as a measure for cellular proliferation, analyzed on day 4. For rapamycin and AX-024–treated cells, the dashed line indicates control proliferation at a DMSO concentration of 0.2%. For CD3ϵ-derived peptides 11Rwt, 11R085, and 11Rscr, the dashed line indicates control proliferation at 0.3% DMSO, 0.3% PBS. 11Rwt has sequence R11-G3-[…], 11R085 R11-G3-Q(dK)[…], and 11Rscr R11-G3-[…](dK)PQP. A polyarginine tag is used to enable cell penetration of the peptides ([10]). The gray boxes indicate concentrations of compound leading to decreased cell viability. These values should be disregarded. Binding of peptides 11Rwt and 11R085, but not 11Rscr, to Nck-SH3.1 was confirmed by NMR spectroscopy (Fig. S1). Asterisks, p < 0.05 as determined by a repeated-measure one-way analysis of variance with Holm–Sidak's multiple-comparison test to DMSO/PBS. Dotted lines, mean DMSO/PBS values. Error bars, S.D.
Fresh human peripheral blood mononuclear cells (PBMCs) from healthy donors (n = 4) were prepared from buffy coats. CD3^+ T cells were isolated by immunomagnetic separation (negative selection, StemCell, lot 18A87710), carboxyfluorescein succinimidyl ester (CFSE)-labeled, resuspended in StemCell Immunocult^TM-XF T cell expansion medium, and treated with compounds or vehicle for 2 h at room temperature. The isolated CD3^+ T cells were stained for CD3, CD4, and CD8, and their purity was assessed by flow cytometry. Cells were then cultured in a 96-well flat-bottomed plate (10^5 cells/well), precoated for 1 h at 37 °C with 0.2 μg·ml^−1 plate-bound anti-CD3 (clone OKT3, BioLegend). […] Cells were cultured in the presence of AX-024, rapamycin, peptide 11Rwt, peptide 11R85, peptide 11Rscr (derived from Ref. [11]; see below for sequences), or vehicle for 4 days. At the end of culture, cells were stained for viability, and CFSE dilution was assessed by flow cytometry (with gating on CD4 versus CD8).

monomeric Nck1-SH3.1 = assay: Ligand-observed NMR with monomeric Nck1-SH3.1; type: binding, human; conditions: 50 μM ligand, 10 μM monomeric Nck1-SH3.1 (residues 1–61), pH 6.5, 150 mM NaCl, 27 °C
Method: NMR spectra were recorded on a Bruker 600-MHz Avance NEO spectrometer equipped with a cryogenic QCI probe head at 27 °C in 25 mM […], 150 mM NaCl. The Topspin 4.0 software (Bruker, Fällanden) was used for spectrometer operation and data processing. For ^1H ligand-observed measurements, a relaxation filtered pulse sequence utilizing a spinlock of 50 ms was applied. 1D spectra were acquired with 128 scans, a sweep width of 26 ppm, and an acquisition time of 2 s. 2D ^1H-^15N HSQC spectra with natural ^15N isotope abundance were recorded over 72 h with a spectral width of 16 ppm and 35 ppm in the proton and nitrogen dimensions, respectively, with 256 increments (complex) and 1000 scans per increment. A relaxation delay of 1 s was used between scans. For the DOSY measurements (reviewed in Ref. [51]), the Bruker pulse sequence ledbpgp2s with a diffusion delay of 50 ms and a gradient length of 600 μs was used. The gradient strength was varied from 5 to 95% to record 16 increments of 512 scans with a sweep width of 18 ppm and a relaxation delay of 1 s.
Samples for ligand-observed measurements were prepared in 25 mM sodium phosphate buffer, pH 6.5, 150 mM NaCl. One sample contained 50 μM AX-024, and the other contained 50 μM CD3ϵ peptide.

Nck1-SH3.1 = conditions: in vitro; ref [10]; cited from earlier work
Excerpt: (§1) The objective of the present study was to initiate development of an inhibitor of the Nck/TCR interaction, specifically by blocking binding of the first SH3 domain in Nck (Nck1-SH3.1) to the PRS in the CD3ϵ subunit of the TCR.

T cell proliferation = conditions: response to weak antigens; ref [10]; cited from earlier work
Excerpt: as §1

[1] = test system: Zap70 phosphorylation in anti-CD3–stimulated T cells; conditions: ref [10]; cited from earlier work
Method: It was shown previously that Nck contributes to TCR signaling after weak stimulation of T cells. […] To obtain a strong dependence of TCR signaling on Nck, different stimulation conditions with low concentrations of anti-CD3 in the absence of co-stimulatory signals were assessed in the presence of AX-024 (Fig. 4). […] At the outset of this study, further development of AX-024, published as a PPI of the Nck1/CD3ϵ interaction ([10]), was anticipated. Unfortunately, we could not replicate all biological effects attributed to this compound. […] Whereas there is an inhibitory effect of AX-024 on T cell proli ...

COc1ccc2c(c1)C(c1ccc(F)cc1)=C(CN1CCCC1)CO2.Cl [AX-024, 1-((4-(4-fluorophenyl)-6-methoxy-2H-chromen-3-yl)methyl)pyrrolidine hydrochloride]
inhibition of T cell proliferation (CD4 T cell proliferation): inhibited T cell proliferation | ligand-observed NMR, spectral change / line broadening (monomeric Nck1-SH3.1): no binding of AX-024 was detected by NMR; also recorded: do not show any spectral changes | physical interaction with Nck1-SH3.1 (SPR and NMR) (Nck1-SH3.1): appeared to support physical interaction of AX-024 with the Nck1-SH3.1 domain | inhibition of T cell proliferation (T cell proliferation): inhibit T cell proliferation specifically in response to weak antigens | reduction of Zap70 phosphorylation [1]: reduces Zap70 phosphorylation to the same level as in unstimulated T cells; also recorded: reduces ZAP70 phosphorylation in anti-CD3–stimulated T cells to levels comparable with unstimulated T cells
